Results taken from the supplement of paper PMC10307832.

Columns and labels:
Assay in all cases: relative viability (nuclei count vs DMSO), 5 days (fraction); higher = more cells survive
XMD14-99 + Decitabine = compound: CN1CCN(CC1)C2=CC(=C(C=C2)NC3=NC(=C(S3)C(=O)C4=C(C=CC=C4Cl)Cl)N)OC [XMD14-99] + Nc1ncn([C@H]2C[C@H](O)[C@@H](CO)O2)c(=O)n1 [Decitabine] (partner 2 µM)
In short: (§1)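 Lung cancer cell lines, seeded in 1536-well plates, were treated the following day by pin tool with a single drug or with five library-drug doses (not always all listed) in √10 steps on top of a fixed anchor-drug dose. Cells were fixed and nuclei stained in one step after 5 days, and nuclei were counted. Relative viability is the nuclei count for treated wells divided by that for vehicle wells, reported as medians of duplicate plates.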

AZD1208 + Navitoclax = compound: N[C@@H]1CCCN(c2c(/C=C3\SC(=O)NC3=O)cccc2-c2ccccc2)C1 [AZD1208] + CC1(C)CCC(c2ccc(Cl)cc2)=C(CN2CCN(c3ccc(C(=O)NS(=O)(=O)c4ccc(N[C@H](CCN5CCOCC5)CSc5ccccc5)c(S(=O)(=O)C(F)(F)F)c4)cc3)CC2)C1 [Navitoclax] (partner 0.5 µM)
In short: as §1

XMD14-99 + Trametinib = compound: CN1CCN(CC1)C2=CC(=C(C=C2)NC3=NC(=C(S3)C(=O)C4=C(C=CC=C4Cl)Cl)N)OC [XMD14-99] + CC(=O)Nc1cccc(-n2c(=O)n(C3CC3)c(=O)c3c(Nc4ccc(I)cc4F)n(C)c(=O)c(C)c32)c1 [Trametinib] (partner 0.02 µM)
In short: as §1

XMD14-99 + Phenformin = compound: CN1CCN(CC1)C2=CC(=C(C=C2)NC3=NC(=C(S3)C(=O)C4=C(C=CC=C4Cl)Cl)N)OC [XMD14-99] + N=C(N)NC(=N)NCCc1ccccc1 [Phenformin] (partner 250 µM)
In short: as §1

Row | Cell Line | relative viability (XMD14-99 + Decitabine; first compound 0.08 µM) | relative viability (XMD14-99 + Decitabine; first compound 0.8 µM) | relative viability (XMD14-99 + Decitabine; first compound 2.53 µM) | relative viability (XMD14-99 + Decitabine; first compound 8 µM) | relative viability (AZD1208 + Navitoclax; first compound 0.08 µM) | relative viability (AZD1208 + Navitoclax; first compound 0.253 µM) | relative viability (AZD1208 + Navitoclax; first compound 0.8 µM) | relative viability (AZD1208 + Navitoclax; first compound 2.53 µM) | relative viability (AZD1208 + Navitoclax; first compound 8 µM) | relative viability (XMD14-99 + Trametinib; first compound 0.08 µM) | relative viability (XMD14-99 + Trametinib; first compound 0.8 µM) | relative viability (XMD14-99 + Trametinib; first compound 2.53 µM) | relative viability (XMD14-99 + Trametinib; first compound 8 µM) | relative viability (XMD14-99 + Phenformin; first compound 0.08 µM) | relative viability (XMD14-99 + Phenformin; first compound 0.8 µM) | relative viability (XMD14-99 + Phenformin; first compound 2.53 µM) | relative viability (XMD14-99 + Phenformin; first compound 8 µM)
1 | NCI-H441 | 0.279 | 0.242 | 0.308 | 0.234 | 0.936 | 0.698 | 0.65 | 0.289 | 0.393 | 0.523 | 0.436 | 0.389 | 0.263 | 0.889 | 0.811 | 0.738 | 0.662
2 | PC-14 | 0.26 | 0.238 | 0.201 | 0.142 | 1.02 | 0.988 | 1.01 | 1.02 | 1 | 0.668 | 0.726 | 0.59 | 0.217 | 0.639 | 0.644 | 0.517 | 0.308
3 | HARA | 0.565 | 0.505 | 0.537 | 0.403 | 1.13 | 1.16 | 1.2 | 1.03 | 1.15 | 0.577 | 0.549 | 0.465 | 0.466 | 0.438 | 0.486 | 0.346 | 0.324
4 | NCI-H2126 | 0.629 | 0.537 | 0.611 | 0.503 | 0.902 | 0.753 | 0.812 | 0.788 | 0.731 | 0.545 | 0.569 | 0.621 | 0.56 | 0.526 | 0.51 | 0.45 | 0.421
5 | NCI-H1437 | 0.621 | 0.469 | 0.458 | 0.417 | 1.13 | 1.11 | 1.02 | 1.16 | 1.07 | 0.532 | 0.402 | 0.347 | 0.305 | 0.321 | 0.316 | 0.244 | 0.237
6 | NCI-H1792 | 0.497 | 0.499 | 0.549 | 0.326 | 0.678 | 0.779 | 0.531 | 0.645 | 0.557 | 0.419 | 0.465 | 0.399 | 0.302 | 0.286 | 0.379 | 0.234 | 0.167
7 | ChaGo-K-1 | 0.52 | 0.531 | 0.5 | 0.481 | 1.16 | 1.05 | 1.09 | 0.834 | 0.785 | 0.861 | 0.863 | 0.895 | 0.829 | 0.474 | 0.51 | 0.494 | 0.388
8 | COR-L23 | 0.467 | 0.428 | 0.41 | 0.382 | 0.948 | 1.07 | 0.931 | 1.05 | 0.816 | 0.518 | 0.56 | 0.546 | 0.363 | 0.446 | 0.418 | 0.372 | 0.301
9 | COR-L 105 | 0.718 | 0.651 | 0.606 | 0.604 | 0.679 | 0.745 | 0.555 | 1.13 | 0.682 | 0.407 | 0.493 | 0.432 | 0.431 | 0.477 | 0.494 | 0.398 | 0.371
